These results are taken from US10487087B2, “Positive allosteric modulators of the GLP-1 receptor” (Vanderbilt University, priority 2015, dated 2019).

Format in all cases: cell-based
Experiment [1] concerns the target T1, human GLP-1R (Homo sapiens (Human), UniProt P43220). Description: GLP-1 assay with GLP1 endogenous agonist (calcium mobilization, EC20 GLP-1 peptide 7-36 amide). To be noted: calcium flux; for Emax at 30 µM: 30 μM compound, EC20 of GLP-1 7-36 amide; for EC50: potentiation of EC20 GLP-1 7-36 amide. The source says: A. GLP-1 Assay with GLP1 Endogenous Agonist
(§1) To assess the effects of test compounds on GLP-1 or glucagon potency and efficacy, a high-throughput calcium mobilization assay was used essentially as previously described (Morris L C, Days E L, Turney M, Mi D, Lindsley C W, Weaver C D, Niswender K D, A Duplexed High-Throughput Screen to Identify Allosteric Modulators of the Glucagon-Like Peptide 1 and Glucagon Receptors. J. Biomol. Screen. 2014 Feb. 13, 19(6):847-858). Briefly, human GLP-1R or Glucagon Receptor 9-3-H cells over-expressing a promiscuous G-protein (Millipore, Billerica, Mass.) were plated at 15,000 cells/well in black-walled 384-well plates (Greiner Bio-one, Monroe, N.C.) in Dulbecco's Modified Eagles Medium (DMEM) with 10% FCS, 4.0 mM L-glutamine, non-essential amino acids (NEAAs), and 10.0 mM HEPES without antibiotics. After overnight attachment, cells were washed twice with assay buffer (HBSS supplemented with 20 mM HEPES and 1.0 mM probenecid) using an ELx405CW cell washer (Bio-Tek, Winooski, Vt.) and then loaded with the calcium sensitive dye fluo-4 AM (Invitrogen, Grand Island, N.Y.) at a final concentration of 2.0 μM in assay buffer. After a 45-minute incubation at room temperature, the dye was removed by washing, leaving 20 μL of assay buffer. Next, the cell plate was introduced alongside a 384-well compound plate containing 0.1% final DMSO control wells and 11-point concentration response curves of putative GLP-1 PAMs created using a non-pipet based liquid transfer instrument, ECH0555 (Labcyte, Sunnyvale, Calif.). After a 20 μL compound addition to the appropriate wells, kinetic fluorescent measurements were collected for 2 minutes using an FDSS6000 (Hamamatsu, Bridgewater, N.J.) with 488 nm excitation and 480/540 emission filters. After 2 minutes, 10 μL of an EC20 concentration of GLP-1 peptide 7-36 amide (Phoenix Pharmaceuticals, Burlingame, Calif.), Glucagon (Phoenix Pharmaceuticals, Burlingame, Calif.) Exendin-4 (Tocris Bioscience, Bristol, UK), or Liraglutide (Victoza™, Novo-Nordisk, Denmark) was added and fluorescence was monitored for an additional 2 minutes to observe potentiation of the calcium flux signal. […] Recombinant peptides were reconstituted into assay buffer supplemented with 0.1% fatty acid free BSA (Sigma #A6003) and diluted into borosilicate glass tubes to maximize peptide recovery (Goebel-Stengel M, Stengel A, Tache Y, Reeve J R Jr., The importance of using the optimal plasticware and glassware in studies involving peptides. Anal. Biochem. 2011 Jul. 1, 414(1):38-46).
(§2) Data is from a single experiment unless otherwise noted. Data that is an average of two experiments is noted as “n=2” while data that is an average of three or more experiments is presented as the average plus or minus the standard error of the mean.
On the technique in general: A change in cytosolic calcium serves as a functional read-out for many receptors and channels.

Experiment [2] concerns the target T1, human GLP-1R. The experiment is described as follows: GLP-1 assay with EX-4 synthetic agonist (calcium mobilization, EC20 EX-4). The conditions noted are these: calcium flux; for Emax at 30 µM: 30 μM compound, EC20 of EX-4; for EC50: potentiation of EC20 EX-4, read-out: GLP1 EC50 (Ex-4 synthetic agonist).
Source text: B. GLP-1 Assay with EX-4 Synthetic Agonist
as §1, with “L-glutamine, 1×” for “L-glutamine,”, “EL×405CW” for “ELx405CW”, “EX-4” for “GLP-1 peptide 7-36 amide”, “Taché” for “Tache”
as §2

Experiment [3] deals with T1, human GLP-1R. The experiment is described as follows: GLP-1 concentration response curves in the presence of fixed concentrations of PAM (GLP-1 induced calcium flux). To be noted: 0 μM, 3 μM, 10 μM, 30 μM of compound; FIGS. 2A and 2B. From the text:
FIGS. 2A and 2B show a series of GLP-1 concentration response curves in the presence of fixed concentrations of an exemplary positive allosteric modulator (Compound 1).

T1 sequence (P43220 24-463): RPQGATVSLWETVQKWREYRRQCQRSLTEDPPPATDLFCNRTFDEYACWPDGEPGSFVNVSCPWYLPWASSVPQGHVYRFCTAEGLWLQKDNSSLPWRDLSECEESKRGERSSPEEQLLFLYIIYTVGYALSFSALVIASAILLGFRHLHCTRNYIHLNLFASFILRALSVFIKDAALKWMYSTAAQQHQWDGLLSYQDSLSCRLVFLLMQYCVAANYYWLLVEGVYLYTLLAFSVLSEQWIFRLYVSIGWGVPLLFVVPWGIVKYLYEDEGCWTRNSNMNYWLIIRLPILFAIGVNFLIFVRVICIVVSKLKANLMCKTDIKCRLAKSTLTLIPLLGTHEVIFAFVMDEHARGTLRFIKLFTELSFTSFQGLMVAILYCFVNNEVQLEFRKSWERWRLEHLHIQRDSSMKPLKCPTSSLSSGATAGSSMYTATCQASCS

By Emax is commonly meant the maximal effect, on the per cent scale that the assay sets. The term EC50 denotes the concentration needed to bring the measured effect to its halfway point. `Cc1c2ccccc2n2c(C(=O)NC[C@@H]3CCCN3C(C)C)cn(C3CCCC3)c(=O)c12` [Compound 1, (S)-2-Cyclopentyl-N-((1-isopropylpyrrolidin-2-yl)methyl)-10-methyl-1-oxo-1,2-dihydropyrazino[1,2-a]indole-4-carboxamide]: the Emax at 30 µM came out at 57% on human GLP-1R [1] and 59% on human GLP-1R [2]. The EC50 is 2.7 µM on human GLP-1R [1] and 4.6 µM at human GLP-1R [2]. In addition, at human GLP-1R [3], the “shift of GLP-1 concentration response curves / GLP-1 EC50” value is on record as “leftward shift in the GLP-1 concentration response curves”.

With `Cc1c2n(c3ccccc13)[C@@H](C(=O)NC[C@@H]1CCCN1C(C)C)CN(C1CCCC1)C2=O` [Compound 8, (R)-2-cyclopentyl-N-(((S)-1-isopropylpyrrolidin-2-yl)methyl)-10-methyl-1-oxo-1,2,3,4-tetrahydropyrazino[1,2-a]indole-4-carboxamide], at human GLP-1R [1], the Emax at 30 µM worked out at 56% and the EC50 turned out to be 3.6 µM. Also, at human GLP-1R [2], the maximal effect (Emax) at 30 µM was determined as 56% and the EC50 is 3.6 µM.

With `Cc1c2n(c3ccccc13)[C@H](C(=O)NC[C@@H]1CCCN1C(C)C)CN(C1CCCC1)C2=O` [Compound 9, (S)-2-cyclopentyl-N-(((S)-1-isopropylpyrrolidin-2-yl)methyl)-10-methyl-1-oxo-1,2,3,4-tetrahydropyrazino[1,2-a]indole-4-carboxamide], on human GLP-1R [1], the Emax at 30 µM was 40% and the EC50 is above 30 µM. For the same compound, at human GLP-1R [2], the Emax at 30 µM is 33% and the EC50 is above 30 µM.

Take `CC(C)N1CCC[C@H]1CNC(=O)c1cn(C2CCCC2)c(=O)c2c(Cl)c3ccccc3n12` [Compound 10, (S)-10-chloro-2-cyclopentyl-N-((1-isopropylpyrrolidin-2-yl)methyl)-1-oxo-1,2-dihydropyrazino[1,2-a]indole-4-carboxamide]: on human GLP-1R [1], the Emax at 30 µM was determined as 61% and the 50% effective concentration (EC50) was determined as 1.3 µM. For the same compound, on human GLP-1R [2], the Emax at 30 µM stood at 57% and the EC50 stood at 1.5 µM.

As to `CC(C)N1CCC[C@@H]1CNC(=O)c1cn(C2CCCC2)c(=O)c2c(Cl)c3ccccc3n12` [Compound 11, (R)-10-chloro-2-cyclopentyl-N-((1-isopropylpyrrolidin-2-yl)methyl)-1-oxo-1,2-dihydropyrazino[1,2-a]indole-4-carboxamide], at human GLP-1R [1], the Emax at 30 µM turned out to be 44% and the EC50 was above 30 µM. In addition, the EC50 at human GLP-1R [2] is above 30 µM.

As to `CC(C)N1CCC[C@H]1CNC(=O)c1cn(C2CCCC2)c(=O)c2c(Br)c3ccccc3n12` [Compound 12, (S)-10-bromo-2-cyclopentyl-N-((1-isopropylpyrrolidin-2-yl)methyl)-1-oxo-1,2-dihydropyrazino[1,2-a]indole-4-carboxamide], the values for the Emax at 30 µM on human GLP-1R [1] and on human GLP-1R [2] were 53% and 59%, respectively. Moreover, the 50% effective concentration (EC50) at human GLP-1R [1] was 2.2 µM; at human GLP-1R [2], 3.6 µM.

As for `CC(C)N1CCC[C@@H]1CNC(=O)c1cn(C2CCCC2)c(=O)c2c(Br)c3ccccc3n12` [Compound 13, (R)-10-bromo-2-cyclopentyl-N-((1-isopropylpyrrolidin-2-yl)methyl)-1-oxo-1,2-dihydropyrazino[1,2-a]indole-4-carboxamide], at human GLP-1R [1], the Emax at 30 µM was 39% and the EC50 was above 30 µM. The EC50 on human GLP-1R [2] is above 30 µM.
